In this test the target is sweet almond β-glucosidase. As to the kind of experiment: droplet absorbance assay of 4-nitrophenyl glucopyranoside hydrolysis ([…] nm); IC50 […] converted to Ki by Cheng-Prusoff. It is filed as biochemical, Prunus dulcis.

Counter-ions that a name gives are not always drawn.

A word on the Ki: it is a measure of affinity in units of concentration, obtained from inhibition or displacement.

`OC[C@H]1NC[C@H](O)[C@@H](O)[C@@H]1O` [DNM, 1-deoxynojirimycin hydrochloride] had a Ki of about 36 µM.
